# Results reported in patent US20230391730A1, “INHIBITORS OF THE BROMODOMAIN PHD FINGER TRANSCRIPTION FACTOR (BPTF) AS ANTI-CANCER AGENTS” (Regents of the University of Minnesota, priority 2020, published 2023).
# “Also recorded” adds a separate entry of the source.
# Key:
# 4T1 cells [1] = test: Combination with doxorubicin in 4T1 cells (MTS assay); assay type: cell-based, mouse; details: for sensitization of 4T1 cells to doxorubicin: 50 nM doxorubicin
# Protocol: (§1) Cell culture methods. 4T1 cells were grown to a confluency of 50-60% using media containing DMEM with 10% fetal bovine serum (FES), 2 mM glutamine and penicillin-streptomycin. 4T1 cells with snRNA-mediated BPTF knockdown (KD) were prepared as described previously. For NURF inhibitor toxicity study, 4000 cells/well were seeded in a 96-well plate and allowed to adhere overnight. The next day, 10 different dilutions of inhibitors were prepared starting with a highest concentration of 1.0 mM and further serially diluted 10 times to get the lowest concentration of 1.95 μM. Cells were treated with the inhibitors in complete media for 4 days. Thereafter, the MTS reagent was prepared using the CellTitre 96 aqueous MTS reagent (Promega, Cat #G1111) and phenazine methosulphate (Sigma, Cat #P9625). The MTS assay was performed as per manufacturer's protocol and the absorbance was recorded at a wavelength of 490 nm. Fraction cell survival was calculated using untreated control cells to indicate complete survival (1.0) and blank solutions as 0.0 survival. The data was derived from three independent experiments (N=3) and fraction survival was plotted as mean fraction survival±SEM using GraphPad Prism software. For checking the toxicity on wildtype and BPTF knockdown cells, three doses were selected for each inhibitor based on theft toxicity curves and treated for 4 days alone or in combination with 50 nM doxorubicin. Fraction survival was measured and calculated by MIS assay as mentioned above.
# Sfn = test: RT-qPCR of BPTF regulated genes in Eph4 cells, Sfn; assay type: cell-based, murine; details: 5 μM, 24 h, relative to DMSO
# Protocol: qPCR methods. Eph4 cells were treated for 24 h and harvested in trizol. RNA extraction was carried out via chloroform extractions. cDNA creation was completed via SuperScript III cDNA creation kit (Invitrogen, #12574026). All qpcrs are normalized to EPH4 DMSO and the house keeping gene beta actin. Bars represent 2 biological replicates and 3 technical replicates. All statistical analysis are student's t-test carried out on GraphPad. Reactions were carried out on the Quantstudio 6 platform using Sybr Green PCR Master Mix (Applied Biosystems, #4309155) Statistically significant differences for cell line treatment groups were considered with a one-way Anova p-value lower than 0.05 (p<0.05).
# It's been previously shown that BPTF inhibition was associated with alteration to lineage commitment and stem cell maintenance. Loss of BPTF expression in a mixed population of Krt5-expressing mammary stem cells induced differentiation, a process that was accompanied by changes to chromatin accessibility and altered gene expression activation. The effects of the BPTF inhibitors described herein were investigated in mammary luminal cells.
# [2] = assay type: physicochemical
# Protocol: UV-Vis Methods. Compounds were diluted in DMSO at a top concentration of 100 mM. 2-fold serial dilutions in DMSO where performed followed by 1000-fold dilution into phosphate saline buffer (PBS) to get a final top concentration of 100 μM in 0.1% DMSO for each compound. UV-Vis measurements at 254 nm were taken on a Biomate 3S Spectrophotometer.
# Eph4 cells = details: 5 μM
# Protocol: Cytotoxicity experiments with Eph4 cells. […] Media containing each condition were changed every 12 hours. […] Cells were also stained with Live/Dead Violet (Thermo Scientific, #L34964) in accordance to manufacturers specifications. All flow was performed on a Macsquant 10 (Miltenyl Biotec) and analyzed on FlowJo (TreeStar/BD).
# [3] = disclosed by the structural genomics consortium; cited from earlier work
# CECR2 [4] = molecular target: T1, CECR2 (Homo sapiens, UniProt Q9BXF3); details: disclosed by the structural genomics consortium; cited from earlier work
# Target sequence in this assay (Q9BXF3 whole entry): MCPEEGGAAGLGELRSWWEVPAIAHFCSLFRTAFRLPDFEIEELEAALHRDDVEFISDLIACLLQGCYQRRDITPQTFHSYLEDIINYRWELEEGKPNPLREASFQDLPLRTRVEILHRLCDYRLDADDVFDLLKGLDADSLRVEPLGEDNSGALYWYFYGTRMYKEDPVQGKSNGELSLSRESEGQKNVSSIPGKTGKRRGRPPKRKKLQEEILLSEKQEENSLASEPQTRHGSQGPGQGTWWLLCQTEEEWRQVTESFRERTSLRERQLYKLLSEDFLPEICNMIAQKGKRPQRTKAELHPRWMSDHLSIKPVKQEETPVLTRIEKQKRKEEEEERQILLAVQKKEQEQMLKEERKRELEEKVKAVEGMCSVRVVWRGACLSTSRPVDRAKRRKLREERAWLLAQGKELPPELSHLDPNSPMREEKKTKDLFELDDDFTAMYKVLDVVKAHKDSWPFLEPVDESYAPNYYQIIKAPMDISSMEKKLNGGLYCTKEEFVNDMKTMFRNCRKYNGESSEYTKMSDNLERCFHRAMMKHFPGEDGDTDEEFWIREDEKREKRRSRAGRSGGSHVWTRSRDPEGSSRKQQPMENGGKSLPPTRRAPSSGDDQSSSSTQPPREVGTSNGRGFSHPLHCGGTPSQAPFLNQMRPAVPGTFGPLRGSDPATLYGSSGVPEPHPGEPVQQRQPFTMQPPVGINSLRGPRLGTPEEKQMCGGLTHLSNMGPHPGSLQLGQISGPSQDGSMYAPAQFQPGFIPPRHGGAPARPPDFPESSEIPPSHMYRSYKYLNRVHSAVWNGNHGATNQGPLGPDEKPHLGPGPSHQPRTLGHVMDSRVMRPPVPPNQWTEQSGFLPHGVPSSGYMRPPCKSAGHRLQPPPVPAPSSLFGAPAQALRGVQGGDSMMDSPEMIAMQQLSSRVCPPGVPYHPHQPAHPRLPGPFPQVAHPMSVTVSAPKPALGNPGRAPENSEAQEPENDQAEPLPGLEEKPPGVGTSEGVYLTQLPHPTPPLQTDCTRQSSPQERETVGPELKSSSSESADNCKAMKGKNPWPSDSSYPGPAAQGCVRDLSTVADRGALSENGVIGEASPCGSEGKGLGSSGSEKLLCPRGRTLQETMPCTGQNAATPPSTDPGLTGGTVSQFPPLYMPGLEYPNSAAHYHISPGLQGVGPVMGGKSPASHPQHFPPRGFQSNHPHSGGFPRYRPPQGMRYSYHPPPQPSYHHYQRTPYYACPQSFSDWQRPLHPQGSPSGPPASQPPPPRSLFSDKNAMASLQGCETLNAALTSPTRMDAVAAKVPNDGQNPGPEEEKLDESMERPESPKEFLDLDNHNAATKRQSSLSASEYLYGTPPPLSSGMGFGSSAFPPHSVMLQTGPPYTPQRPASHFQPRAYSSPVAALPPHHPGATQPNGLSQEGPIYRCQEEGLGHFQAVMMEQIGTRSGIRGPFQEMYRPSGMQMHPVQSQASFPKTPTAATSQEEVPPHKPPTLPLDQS
# BPTF bromodomain = molecular target: T2, BPTF bromodomain (Homo sapiens, UniProt Q12830); test: BPTF AlphaScreen competitive inhibition assay; assay type: binding
# T2 construct: 30 nM for His9-tagged BPTF bromodomain and 50 nM for the biotinylated peptide were used; made in house
# Protocol: (§3) General Procedure for AlphaScreen Assay.^36 Unlabeled His9-tagged BPTF and BRD4 D1 were expressed and purified as described previously.^36 The AlphaScreen assay procedures for BPTF and BRD4 bromodomains were adapted from the manufacturers protocol (PerkinElmer, USA). […] The biotinylated Histone H4 KAc5,8,12,16 peptide was purchased from EpiCypher, with the sequence:
# (§4) All reagents were diluted in the assay buffer (50 mM HEPES-Na^+ (ChemImpex), 100 mM NaCl (SigmaAldrich), 0.05% CHAPS (RPI), 0.1% BSA (SigmaAldrich), pH 7.4). The final assay concentrations (after the addition of all assay components) of 30 nM for His9-tagged BPTF bromodomain and 50 nM for the biotinylated peptide were used. […] The plate was sealed and kept at room temperature for 30 min, followed by the addition of 5 μL of the biotinylated peptide. 5 μL of nickel chelate acceptor beads was added to each well under low light conditions (<100 lux), to a final concentration of 20 μg/mL, and the plate was incubated at room temperature in the dark for 30 minutes. This was followed by the addition of 5 μL (20 μg/mL final concentration) of streptavidin donor beads in low light conditions. After incubation for 30 min in the dark, the plate was read in AlphaScreen mode using a PerkinElmer EnSpire plate reader. […] IC50 values were calculated in GraphPad Prism 5 using sigmoidal 4-parameter logistic (4PL) curve
# BPTF = molecular target: T3, BPTF (Homo sapiens, UniProt Q12830); test: BROMOscan, BPTF; assay type: binding
# T3 construct: Kd values for BZ1 with BPTF and off-target class I (PCAF, GCN5L2, CECR2,) and class IV (BRD7, BRD9) bromodomains; purchased
# PCAF [5] = molecular target: T4, PCAF (Homo sapiens, UniProt Q92831); test: BROMOscan, PCAF; assay type: binding
# T4 construct: off-target class I (PCAF, GCN5L2, CECR2,) and class IV (BRD7, BRD9) bromodomains and BRD4(1); purchased
# T4 sequence (Q92831 723-827 limits assumed): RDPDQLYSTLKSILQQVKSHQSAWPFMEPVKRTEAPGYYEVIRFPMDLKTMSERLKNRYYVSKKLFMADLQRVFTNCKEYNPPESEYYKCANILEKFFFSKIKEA
# Protocol: Given that these measurements were only estimates of affinity, a full titration was carried out for five additional bromodomains (FIG. 5B).
# BRD4(1) [6] = molecular target: T5, BRD4(1) (Homo sapiens, UniProt O60885); test: BRD4(1) AlphaScreen competitive inhibition assay; assay type: binding; design: Unlabeled His9-tagged BPTF and BRD4 D1 were expressed and purified as described previously; made in house
# Protocol: as §3, §4
# PCAF [7] = molecular target: T6, PCAF (Homo sapiens, UniProt Q92831); test: PrOF NMR titration, 5FW-PCAF; assay type: binding; details: 5FW-labeled protein
# T6 construct: three class I bromodomains, BPTF, PCAF, CECR2 and one class II bromodomain, BRD4(1) were fluorine-labelled; made in house
# T6 sequence (Q92831 723-827): T4 sequence (Q92831 723-827 limits assumed)
# Protocol: (§5) Protein-Observed Fluorine (PrOF) NMR. […] 40-50 μM of protein in 50 mM TRIS, 100 mM NaCl, and pH 7.4 was diluted by adding 25 μL of D2O and 2 μL of 0.1% TFA for NMR locking and referencing purposes, respectively. […] Ligands were titrated and the change in chemical shift relative to the control sample was plotted as a function of ligand concentration to generate binding isotherms. The data was processed in Mestrenova and isotherms were fit using GraphPad Prism with the equation below. Δδobs is the change in chemical shift, [L] is the total ligand concentration, and [P] is the total protein concentration:
# (§6) The tryptophan residue in the WPF shelf of three class I bromodomains, BPTF, PCAF, CECR2 and one class II bromodomain, BRD4(1) were fluorine-labelled (FIG. 4A) and the chemical shift perturbation on titrating in BZ1 was observed.
# GCN5L2 = molecular target: T7, GCN5L2 (Homo sapiens, UniProt Q92830); test: BROMOscan, GCN5L2; assay type: binding; details: BROMOscan one-point measurement at 140 nM
# T7 construct: off-target class I (PCAF, GCN5L2, CECR2,) and class IV (BRD7, BRD9) bromodomains and BRD4(1); purchased
# T7 sequence (Q92830 728-832 limits assumed): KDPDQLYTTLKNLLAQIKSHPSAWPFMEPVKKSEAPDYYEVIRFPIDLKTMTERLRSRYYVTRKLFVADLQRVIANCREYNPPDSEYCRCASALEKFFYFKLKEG
# From the text: (§2) Based on the preliminary assessment of BPTF selectivity and affinity of BZ1 by PrOF NMR and AlphaScreen competition assays, the ligand was characterized using a commercial BROMOscan assay. […]. Given the low concentration of ligand and protein used, AlphaScreen can be used to estimate K values as was previously the case for characterizing BRD4-ligand interactions, however the assay for BPTF may slightly underestimate the affinity. […] […]. Recently reported pyridazinone-based inhibitors also bind to these proteins and BRD9 was reported as the closest off-target for TP-238. These studies supported good on target-BPTF inhibition, and identified several off-targets bromodomains for a more quantitative selectivity analysis.
# CECR2 [8] = molecular target: T1, CECR2; test: BROMOscan, CECR2; assay type: binding; design: off-target class I (PCAF, GCN5L2, CECR2,) and class IV (BRD7, BRD9) bromodomains and BRD4(1); purchased; details: BROMOscan one-point measurement at 140 nM
# From the text: as §2
# Target sequence in this assay (Q9BXF3 434-538 limits assumed): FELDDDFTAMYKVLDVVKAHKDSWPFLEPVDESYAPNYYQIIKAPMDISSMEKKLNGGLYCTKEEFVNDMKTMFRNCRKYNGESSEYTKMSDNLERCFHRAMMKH
# CECR2 [9] = molecular target: T1, CECR2; test: PrOF NMR titration, 5FW-CECR2; assay type: binding; design: three class I bromodomains, BPTF, PCAF, CECR2 and one class II bromodomain, BRD4(1) were fluorine-labelled; made in house; details: 5FW-labeled protein
# Target sequence in this assay (Q9BXF3 434-538): as the sequence (Q9BXF3 434-538 limits assumed) above
# Protocol: as §5, §6
# BRD4(1) [10] = molecular target: T5, BRD4(1); test: PrOF NMR titration, 5FW-BRD4(1); assay type: binding; design: three class I bromodomains, BPTF, PCAF, CECR2 and one class II bromodomain, BRD4(1) were fluorine-labelled; made in house; details: 5FW-labeled protein
# Protocol: as §5, §6
# 4T1 cells [11] = test: Inhibitor toxicity in 4T1 cells (MTS assay); assay type: cell-based, mouse; details: inhibitor alone
# Protocol: as §1, with “For checking the toxicity on wildtype and BPTF knockdown cells, three doses were selected for each inhibitor based on theft toxicity curves and treated for 4 days alone or in combination with 50 nM doxorubicin.” left out
# [12] = test system: 4T1 cells with shRNA-mediated BPTF knockdown; test: Inhibitors with doxorubicin in BPTF knockdown 4T1 cells; assay type: cell-based, mouse
# Protocol: as §1, with “For checking the toxicity on wildtype and BPTF knockdown cells, three doses were selected for each inhibitor based on theft toxicity curves and treated for 4 days alone or in combination with 50 nM doxorubicin.” left out
# PCAF [13] = molecular target: PCAF (Homo sapiens, UniProt Q92831); details: previously reported; cited from earlier work
# Target sequence in this assay (Q92831 whole entry): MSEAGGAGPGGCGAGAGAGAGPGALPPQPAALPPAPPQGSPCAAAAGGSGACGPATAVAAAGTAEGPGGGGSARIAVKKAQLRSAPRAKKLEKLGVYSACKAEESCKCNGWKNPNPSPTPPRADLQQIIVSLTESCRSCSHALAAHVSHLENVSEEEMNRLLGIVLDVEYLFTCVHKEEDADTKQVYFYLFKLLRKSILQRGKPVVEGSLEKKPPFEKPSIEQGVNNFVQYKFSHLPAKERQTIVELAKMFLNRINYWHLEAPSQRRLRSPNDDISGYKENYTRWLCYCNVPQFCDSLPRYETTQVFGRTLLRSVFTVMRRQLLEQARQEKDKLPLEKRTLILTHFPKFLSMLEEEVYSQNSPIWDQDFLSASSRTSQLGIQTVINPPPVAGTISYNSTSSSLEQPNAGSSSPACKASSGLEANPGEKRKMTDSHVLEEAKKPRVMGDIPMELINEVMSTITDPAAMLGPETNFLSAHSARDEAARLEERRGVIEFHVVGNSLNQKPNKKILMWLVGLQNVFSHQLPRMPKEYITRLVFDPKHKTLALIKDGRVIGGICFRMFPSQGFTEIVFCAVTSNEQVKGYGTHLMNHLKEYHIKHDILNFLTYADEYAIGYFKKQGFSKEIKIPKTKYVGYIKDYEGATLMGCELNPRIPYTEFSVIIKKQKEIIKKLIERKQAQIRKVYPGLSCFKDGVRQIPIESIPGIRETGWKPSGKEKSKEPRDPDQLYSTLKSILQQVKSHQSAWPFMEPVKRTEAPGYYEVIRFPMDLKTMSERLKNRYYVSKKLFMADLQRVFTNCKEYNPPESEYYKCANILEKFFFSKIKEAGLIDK
# BRD9 = molecular target: T8, BRD9 (Homo sapiens, UniProt Q9H8M2); details: previously reported; cited from earlier work
# T8 sequence (Q9H8M2 1-597): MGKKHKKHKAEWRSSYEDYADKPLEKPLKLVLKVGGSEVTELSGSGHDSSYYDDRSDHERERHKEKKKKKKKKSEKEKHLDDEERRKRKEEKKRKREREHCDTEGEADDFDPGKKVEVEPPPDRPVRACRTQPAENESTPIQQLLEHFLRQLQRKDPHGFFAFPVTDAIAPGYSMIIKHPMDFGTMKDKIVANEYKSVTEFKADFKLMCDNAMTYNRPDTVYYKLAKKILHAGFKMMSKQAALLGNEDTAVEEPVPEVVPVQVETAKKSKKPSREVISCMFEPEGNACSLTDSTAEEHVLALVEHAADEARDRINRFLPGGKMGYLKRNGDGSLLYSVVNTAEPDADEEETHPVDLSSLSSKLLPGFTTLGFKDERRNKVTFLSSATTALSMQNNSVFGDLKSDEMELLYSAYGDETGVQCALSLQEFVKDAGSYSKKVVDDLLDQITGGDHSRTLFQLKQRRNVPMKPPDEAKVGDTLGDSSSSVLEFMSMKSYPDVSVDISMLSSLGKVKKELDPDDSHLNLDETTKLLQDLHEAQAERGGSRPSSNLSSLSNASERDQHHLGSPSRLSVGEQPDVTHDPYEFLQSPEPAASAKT
compound,measurement,setting,value
"CN(C)CCc1ccc(Nc2cnn(C)c(=O)c2Cl)cc1 [Compound 19, 4-chloro-5-((4-(2-(dimethylamino)ethyl)phenyl)amino)-2-methylpyridazin-3(2H)-one]",sensitization of 4T1 cells to doxorubicin,4T1 cells [1],synergize with chemotherapy drug doxorubicin; also recorded: sensitized 4T1 cells to doxorubicin
same,less effective than BZ1,4T1 cells [1]; dose dependence experiment with doxorubicin,2-4 fold
same,Sfn mRNA level,Sfn,statistically significant increase
same,solubility,[2],≥ 100 µM
same,caspase activation,Eph4 cells,lack of caspase activation
Cc1c(Nc2ccc(S(=O)(=O)N3CCN(C)CC3)cc2F)nc2ccc(-c3cnn(C4CC4)c3)cn2c1=O [NVS-BPTF-1],solubility and ADME properties,[3],poor solubility and ADME properties
CN(C)CCCOc1ccc(-c2cc(NCCCn3cccn3)nc(S(C)(=O)=O)n2)cc1 [TP-238],higher affinity for CECR2 over BPTF,CECR2 [4],12 fold
"CN(C)CCc1ccc(Nc2c(Cl)cnn(C)c2=O)cc1 [Compound 20, 5-chloro-4-((4-(2-(dimethylamino)ethyl)phenyl)amino)-2-methylpyridazin-3(2H)-one]",IC50,BPTF bromodomain,10 µM
same,weaker affinity than 18,BPTF bromodomain,140 fold
same,L.E. (ligand efficiency),BPTF bromodomain; from BPTF AlphaScreen,0.32
same,sensitization of 4T1 cells to doxorubicin,4T1 cells [1],did not
same,Sfn mRNA level,Sfn,not significantly affected
same,solubility,[2],≥ 100 µM
"C#CCn1ncc(Nc2ccc(CN)cc2)c(Cl)c1=O [Compound 24, 5-((4-(aminomethyl)phenyl)amino)-4-chloro-2-(prop-2-yn-1-yl)pyridazin-3(2H)-one]",IC50,BPTF bromodomain,0.38 µM
same,Kd,BPTF,0.2 µM
same,Kd,PCAF [5],0.23 µM
same,IC50,BRD4(1) [6],71 µM
"Cn1ncc(Nc2ccc(CCN)cc2)c(Cl)c1=O [Compound 18, 5-((4-(2-aminoethyl)phenyl)amino)-4-chloro-2-methylpyridazin-3(2H)-one]",chemical exchange regime with PCAF,PCAF [7],slow exchange regime stoichiometric titration
same,sensitization of 4T1 cells to doxorubicin,4T1 cells [1]; listed as BZ1,synergize with chemotherapy drug doxorubicin; also recorded: sensitized 4T1 cells to doxorubicin
same,solubility,[2],≥ 100 µM
same,inhibition of GCN5L2,GCN5L2,lower levels of inhibition
same,inhibition of CECR2,CECR2 [8],lower levels of inhibition
same,chemical exchange regime with CECR2,CECR2 [9],intermediate chemical exchange
same,chemical exchange regime with BRD4(1),BRD4(1) [10],fast-intermediate exchange
"COC(=O)c1cccc(NC(=O)N[C@H]2CCN(c3ccnc(Nc4ccc(F)cc4)n3)C2)c1 [AU1, reference compound]",concentration at which toxicity starts,4T1 cells [11],above 16 μM
same,sensitization of 4T1 cells to doxorubicin,4T1 cells [1],synergize with chemotherapy drug doxorubicin
same,further toxicity in BPTF knockdown cells,[12],Additional toxicity was observed
same,Sfn mRNA level,Sfn,upregulated Sfn but did not reach a high enough level of statistical significance
"Cn1ncc(Nc2ccccc2)c(Cl)c1=O [Compound 6, 4-chloro-2-methyl-5-(phenylamino)pyridazin-3(2H)-one]",improvement in affinity compared to previous aliphatic amine analogues,BPTF bromodomain,10 fold
same,affinity for PCAF,PCAF [13],10 µM
same,affinity for BRD9,BRD9,2.5 µM
